Results published in the supplement of paper PMC12137928.
Counter-ions that a name gives are not always drawn.

Test system: HCT116
Conditions: 72 h
How it was run: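 Each well of the 1536-well plates received 250 HCT116 cells, which attached over 5 h. Luminescence was measured with CellTiter-Glo, scaled with vehicle as 0% and positive control as -100%, and pattern-corrected. A four-parameter Hill fit yielded IC50 and maximal efficacy.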

Row | SMILES | IC50 cell viability (ICRF193 0 nM) [µM] | IC50 cell viability (ICRF193 200 nM) [µM]
1 | CCCCCCCCCCCCOCCO [2-(Dodecyloxy)ethanol] | > 45.8 | > 45.8
2 | CCOc1ccc2ccccc2c1C(=O)N[C@@H]1C(=O)N2[C@@H]1SC(C)(C)[C@@H]2C(=O)O [Nafcillin sodium monohydrate] | > 45.8 | > 45.8
3 | OC(CCN1CCCCC1)(c1ccccc1)C1CCCCC1 (stereo not given) [Trihexyphenidyl hydrochloride] | > 45.8 | > 45.8
4 | C[N+](C)(C)CCCCCC[N+](C)(C)C [N,N,N,N',N',N'-Hexamethylhexane-1,6-diaminium] | > 45.8 | > 45.8
5 | Cc1cc2c(s1)Nc1ccccc1N=C2N1CCN(C)CC1 [Olanzapine] | > 45.8 | > 45.8
6 | C=CCc1ccccc1OCC(O)CNC(C)C (stereo not given) [Alprenolol] | > 45.8 | > 45.8
7 | Cc1ccc(NC(=O)c2ccc(CN3CCN(C)CC3)cc2)cc1Nc1nccc(-c2cccnc2)n1 [Imatinib] | > 45.8 | > 45.8
8 | NNc1nncc2ccccc12 [Apresoline] | > 45.8 | > 45.8
9 | O=C(O)CCc1nc(-c2ccccc2)c(-c2ccccc2)o1 [Oxaprozin] | > 45.8 | > 45.8
10 | COc1ccc(CCNCC(O)COc2cccc(C)c2)cc1OC (stereo not given) [Bevantolol hydrochloride] | > 45.8 | > 45.8
11 | CN1CCN(CC(=O)N2c3ccccc3C(=O)Nc3cccnc32)CC1 [Pirenzepine] | > 45.8 | > 45.8
12 | CCOC(=O)c1ccccc1O [Ethyl salicylate] | > 45.8 | > 45.8
13 | Cc1cccc(C)c1NC1=NCCCS1 [Xylazine] | > 45.8 | > 45.8
14 | C=CC[N+]1([C@H]2C[C@H]3[C@@H]4CC[C@H]5C[C@H](O)[C@@H](N6CCOCC6)C[C@]5(C)[C@H]4CC[C@]3(C)[C@H]2OC(C)=O)CCCC1 [Rocuronium bromide] | > 45.8 | > 45.8
15 | C[C@]12CC[C@@H]3c4ccc(O)cc4CC[C@H]3[C@@H]1C[C@@H](O)[C@@H]2O [Estriol] | > 45.8 | > 45.8
16 | CC1(C)S[C@@H]2[C@H](NC(=O)[C@H](N)c3ccccc3)C(=O)N2[C@H]1C(=O)OCOC(=O)[C@@H]1N2C(=O)C[C@H]2S(=O)(=O)C1(C)C [Sultamicillin tosylate] | > 45.8 | > 45.8
17 | CC(=O)OC(C)OC(=O)C(C)c1ccc(-c2ccccc2)c(F)c1 (stereo not given) [Flurbiprofen axetil] | > 45.8 | > 45.8
18 | O=C(C1CCCCC1)N1CC(=O)N2CCCc3ccccc3C2C1 (stereo not given) [Epsiprantel] | > 45.8 | > 45.8
19 | CC(C)(C)NCC(O)COc1ccccc1C#N (stereo not given) [BUNITROLOL] | > 45.8 | > 45.8
20 | Cc1cn[nH]c1 [Fomepizole] | > 45.8 | > 45.8

Row | SMILES | IC50 cell viability (ICRF193 0 nM) [µM] | IC50 cell viability (ICRF193 200 nM) [µM]
21 | CCCNS(=O)(=O)Nc1ncnc(OCCOc2ncc(Br)cn2)c1-c1ccc(Br)cc1 [Macitentan] | > 45.8 | > 45.8
22 | CC(=O)NC[C@H]1CN(c2ccc(N3CCOCC3)c(F)c2)C(=O)O1 [Linezolid] | > 45.8 | > 45.8
23 | CC1O[C@H](O[C@]2(O[C@H]3CC[C@@]4(C)C(=CC[C@H]5[C@@H]6C[C@H]7[C@H]([C@H](C)[C@H]8CC[C@H](C)CN87)[C@@]6(C)CC[C@@H]54)C3)C[C@@H](O[C@@H]3OC(CO)[C@@H](O)[C@@H](O)C3O)[C@@H](O)C(CO)O2)C(O)[C@@H](O)[C@H]1O (stereo partly drawn) [Solanine alpha] | > 45.8 | > 45.8
24 | CN(CCCCCCCCCCN(C)C(=O)Oc1cccc([N+](C)(C)C)c1)C(=O)Oc1cccc([N+](C)(C)C)c1 [Demecarium bromide] | > 45.8 | > 45.8
25 | C[C@@H]1CN([C@H]2CC[C@](C#N)(c3ccc(F)cc3)CC2)CC[C@]1(C(=O)O)c1ccccc1 [Levocabastine hydrochloride] | > 45.8 | > 45.8
26 | CN(C)CCOC1=Cc2ccccc2Sc2ccc(Cl)cc21 [Zotepine] | > 45.8 | > 45.8
27 | CCNCC(O)c1cccc(O)c1 (stereo not given) [Etilefrine hydrochloride] | > 45.8 | > 45.8
28 | NCCNCCNCCNCCN [Tetraethylenepentamine] | > 45.8 | > 45.8
29 | O=C(O)CNC(=O)CNC(=O)CNC(=O)CSC(=O)c1ccccc1 [Betiatide] | > 45.8 | > 45.8
30 | CCOC(=O)O[C@]1(C(=O)OCCl)CC[C@H]2[C@@H]3CCC4=CC(=O)C=C[C@]4(C)[C@H]3[C@@H](O)C[C@@]21C [Loteprednol etabonate] | > 45.8 | > 45.8
31 | Cc1cc(C)c(NC(=O)CN(CC(=O)O)CC(=O)O)c(C)c1Br [Mebrofenin] | > 45.8 | > 45.8
32 | CCC(CC)[C@H](NC(C)=O)[C@@H]1[C@H](O)[C@@H](C(=O)O)C[C@H]1NC(=N)N [Peramivir] | > 45.8 | > 45.8
33 | CC(=C(CCO)SSCC1CCCO1)N(C=O)Cc1cnc(C)nc1N (stereo in doubt) [Fursultiamine Hydrochloride] | > 45.8 | > 45.8
34 | CN1CCN(c2cc3c(cc2F)c(=O)c(C(=O)O)cn3-c2ccc(F)cc2)CC1 [Difloxacin hydrochloride] | > 45.8 | > 45.8
35 | CCCN1C[C@H](C)[C@@H](O)[C@](C)(O)[C@@H](CC)OC(=O)[C@H](C)[C@@H](O[C@H]2C[C@@](C)(OC)[C@@H](O)[C@H](C)O2)[C@H](C)[C@@H](O[C@@H]2O[C@H](C)C[C@H](N(C)C)[C@H]2O)[C@](C)(O)C[C@H]1C [Gamithromycin] | > 45.8 | > 45.8
36 | COc1ccc(-c2cc(=S)ss2)cc1 [Anethole trithione] | > 45.8 | > 45.8
37 | C[C@@H](CO)NC(=O)[C@@H]1C=C2c3cccc4[nH]cc(c34)C[C@H]2N(C)C1 [Ergobasine] | > 45.8 | > 45.8
38 | CCCCCCCCC(=O)NCc1ccc(O)c(OC)c1 [Nonivamide] | > 45.8 | > 45.8
39 | CC(=O)OCC(=O)[C@@]1(O)CC[C@H]2[C@@H]3C[C@H](C)C4=CC(=O)C=C[C@]4(C)[C@H]3[C@@H](O)C[C@@]21C [Methylprednisolone acetate] | > 45.8 | > 45.8
40 | CCCCCCc1ccc(O)cc1O [4-Hexylresorcinol] | > 45.8 | > 45.8

Row | SMILES | IC50 cell viability (ICRF193 0 nM) [µM] | IC50 cell viability (ICRF193 200 nM) [µM]
41 | CC(C)Cc1ccc(C(C)C(=O)O)cc1 (stereo not given) [Ibuprofen lysine] | > 45.8 | > 45.8
42 | CCOCC(O)COc1ccc(NC(=O)CC[S+](C)C)cc1 (stereo not given) [Suplatast tosylate] | > 45.8 | > 45.8
43 | O=P(O)(O)C(O)(Cc1cnc2ccccn12)P(=O)(O)O [Minodronic acid] | > 45.8 | > 45.8
44 | C[N+]1(C)CCCC(OC(=O)C(O)(c2ccccc2)c2ccccc2)C1 (stereo not given) [Mepenzolate bromide] | > 45.8 | > 45.8
45 | COc1ccc(-c2c(Cl)ncn2-c2ccc(S(N)(=O)=O)cc2)cc1F [Cimicoxib] | > 45.8 | > 45.8
46 | COc1cc(NS(=O)(=O)c2ccc(N)cc2)nc(OC)n1 [Sulfadimethoxine] | > 45.8 | > 45.8
47 | CCN1C[C@]2(COC)[C@H](O)C[C@H](OC)[C@@]34[C@@H]5C[C@@]6(O)[C@H](OC(=O)c7ccccc7)[C@@H]5[C@@](OC(C)=O)([C@@H]([C@H](OC)[C@H]23)[C@@H]14)[C@@H](O)[C@@H]6OC [Aconitine] | > 45.8 | > 45.8
48 | CCNC(=O)NCCCOc1cccc(CN2CCCCC2)c1 [Dalcotidine] | > 45.8 | > 45.8
49 | O=P(O)(O)C(O)(Cn1ccnc1)P(=O)(O)O [Zoledronic acid monohydrate] | > 45.8 | > 45.8
50 | O=C(O)CCNC(=O)c1ccccc1 [Betamipron] | > 45.8 | > 45.8
51 | CCn1ccc(NS(=O)(=O)c2ccc(N)cc2)nc1=O [Sulfacytine] | > 45.8 | > 45.8
52 | C=CC1=C(C(=O)O)N2C(=O)[C@@H](NC(=O)/C(=N\OCC(=O)O)c3csc(N)n3)[C@H]2SC1 [Cefixime] | > 45.8 | > 45.8
53 | N[C@@H]1CONC1=O [D-Cycloserine] | > 45.8 | > 45.8
54 | O=c1[nH]c(=O)n([C@@H]2O[C@H](CO)[C@@H](O)[C@@H]2O)cc1/C=C/Br [Bravavir] | > 45.8 | > 45.8
55 | COc1cc2c(cc1OC)C1CC(=O)C(CC(C)C)CN1CC2 (stereo not given) [Tetrabenazine Mesylate] | > 45.8 | > 45.8
56 | CC(C)(C)CC(=O)OCC(=O)[C@@]12OC(C)(C)O[C@@H]1C[C@H]1[C@@H]3CCC4=CC(=O)C=C[C@]4(C)[C@@]3(F)[C@@H](O)C[C@@]12C [Triamcinolone hexacetonide] | > 45.8 | > 45.8
57 | CC(C(=O)O)c1ccc2c(c1)Cc1cccnc1O2 (stereo not given) [Pranoprofen] | > 45.8 | > 45.8
58 | CC(=O)O[C@H]1C[C@@]2(C)[C@@H](C[C@@H](O)[C@H]3[C@@]4(C)CC[C@@H](O)[C@@H](C)[C@@H]4CC[C@@]32C)/C1=C(\CCC=C(C)C)C(=O)O [Fusidic Acid (sodium salt)] | > 45.8 | > 45.8
59 | COCCCC/C(=N\OCCN)c1ccc(C(F)(F)F)cc1 [Fluvoxamine] | > 45.8 | > 45.8
60 | CC(COc1ccc(Oc2ccccc2)cc1)Oc1ccccn1 (stereo not given) [Pyriproxyfen] | > 45.8 | > 45.8
